Measured values reported in article PMC7155755, “Binding of the Human 14-3-3 Isoforms to Distinct Sites in the Leucine-Rich Repeat Kinase 2” (Frontiers in Neuroscience, 2020).
Entries after “also recorded” stand apart in the source; their conditions may differ. Square brackets hold non-standard residues; d marks the D form. Primed or numbered codes have the meaning given here. Ends that are not written are not given here. fluorescein″ = fluorescein label on the N-terminus; fluorescein = N-terminal fluorescein label; pS = N[C@@H](COP(=O)(O)O)C(=O)O

What was measured:
human 14-3-3γ = molecular target: T1, human 14-3-3γ (Homo sapiens, UniProt P61981); test: Fluorescence polarization (FP) direct binding assay; details: fluorescein-labeled peptide 1 nM; for Kd: 20 mM MOPS pH 7, 150 mM NaCl, 0.005% CHAPS, at least three independent measurements, read-out: Binding affinity (KD) toward 14-3-3 isoform γ; for Binding to 14-3-3γ, in words: dilution series of 14-3-3γ (at least 5 μM down to pM), FP buffer pH 7
T1 construct: MBP (cleaved yes); made in house; host or cells: E. coli BL21DE3
T1 sequence (P61981 1-247): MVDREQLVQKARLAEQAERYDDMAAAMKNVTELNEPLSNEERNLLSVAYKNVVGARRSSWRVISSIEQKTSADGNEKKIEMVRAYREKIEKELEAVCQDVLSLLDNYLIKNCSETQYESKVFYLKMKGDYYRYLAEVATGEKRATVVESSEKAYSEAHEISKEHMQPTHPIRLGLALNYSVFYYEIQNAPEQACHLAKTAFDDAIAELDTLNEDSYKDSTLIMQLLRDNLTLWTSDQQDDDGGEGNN
Method: (§1) Human MBP-tagged 14-3-3 isoforms were expressed from pMAL2CX plasmids [[Kilisch et al. (2016)], [Yuan et al. (2003)]] in E. coli BL21DE3 cells. After induction with […] isopropyl-β-D-thiogalactoside, the protein was expressed for 4 h at room temperature. Cells were lysed in MBP-lysis buffer [50 mM Tris–HCl pH 7.5, 150 mM NaCl, 5 mM MgCl2, 1 mM PMSF, 1× cOmplete Protease Inhibitor EDTA-free (Roche)] using a French Pressure cell (FRENCH Press, Thermo, United States). Following centrifugation at 42,000 × g and 4°C for 30 min, the supernatant was transferred to a Maltose-agarose column (1.5 ml bed volume; New England Biolabs GmbH, Germany). Captured proteins were washed six times with 10 ml wash buffer (50 mM Tris–HCl pH 7.5, 150 mM NaCl, 5 mM MgCl2) prior to elution using wash buffer including 15 mM D-maltose. To remove the MBP tag, fusion proteins were incubated with Factor Xa (New England Biolabs GmbH, Germany), at a final concentration of 0.4 μg per 1 mg fusion protein for 24 h at RT following another 72 h at 4°C. Anion exchange chromatography was finally applied to separate residual MBP using a buffer gradient from 20 mM Tris pH 8 to 20 mM Tris pH 8 with 1 M NaCl. For this a RESOURCE Q column (GE Healthcare, United Kingdom) was utilized, employing an ÄKTApurifier (GE Healthcare, United Kingdom) or an NGC Quest Chromatography System (Bio-Rad Laboratories GmbH, Germany).
(§2) FP was used to determine binding affinities of different phosphorylated and non-phosphorylated peptides derived from LRRK2 sequences (Peps4LS GmbH, Germany) toward human 14-3-3 isoforms. Direct binding assays were performed and evaluated as previously described ([Muda et al., 2014]; [Manschwetus et al., 2019]). Briefly, both dilution series of 14-3-3 isoforms ranging from final concentrations of at least 5 μM down to picomolar concentrations and dilutions of the respective fluorescein-labeled peptide (final conc. 1 nM) were prepared in FP buffer (20 mM MOPS pH 7, 150 mM NaCl, 0.005% CHAPS). Subsequently, samples were mixed in 384-well microtiter plates as duplicates (BRAND plates, pureGrade, black, BRAND GmbH & Co. KG, Germany) in a 1:1 ratio and measured using a CLARIOstar plate reader (BMG LABTECH, Germany). Two protein preparations were utilized for at least two independent replications for all measurements while high affinity binding peptides were particularly measured with a minimum of three independent replications for statistical evaluation. Data was analyzed with GraphPad Prism 6.0 (GraphPad Software, San Diego, CA, United States) by plotting obtained FP signals (mPol) against the logarithmic 14-3-3 protein concentrations. Data points represent means ± standard error of mean (SEM) of duplicates. “Ctrl.” indicates the FP signal of fluorescein-labeled peptides without 14-3-3 protein. Sigmoidal dose-response fitting was performed to define KD-values.

[1] = test system: all seven human 14-3-3 isoforms; test: Fluorescence polarization (FP) direct binding assay, statements over all isoforms; details: for Binding to the human 14-3-3 isoforms, in words: FP direct binding, all seven isoforms, fluorescein-labeled peptide 1 nM, FP buffer pH 7
Method: as §1, §2

pS1444 = test: fluorescence polarisation; direct binding; dilution series of 14-3-3 isoform (at least 5 μM down to picomolar) mixed with 1 nM fluorescein-labelled peptide; 20 mM MOPS pH 7, 150 mM NaCl, 0.005% CHAPS; 384-well plates
R1441C/pS1444 = molecular target: T2, R1441C/pS1444 (R1441C (stands in the printed letters)); test: as above; details: both partners purified
T2 construct: LRRK2-derived peptide of the Roc domain with the familial PD mutation R1441C, phosphorylated at S1444; source: synthetic peptide (Peps4LS GmbH)
T2 peptide: fluorescein-LFNIKACAS[pS]SPVILVGT

## CC[C@H](C)[C@H](NC(=O)[C@@H]1CCCN1C(=O)CNC(=O)[C@H](CC(C)C)NC(=O)[C@H](COP(=O)(O)O)NC(=O)[C@H](CC(N)=O)NC(=O)[C@H](CO)NC(=O)[C@H](Cc1c[nH]cn1)NC(=O)[C@H](CCCNC(=N)N)NC(=O)[C@H](CCCNC(=N)N)NC(=O)[C@H](CC(C)C)NC(=O)[C@H](CC(N)=O)NC(=O)[C@@H]1CCCN1C(=O)[C@H](CO)NC(=O)[C@H](CS)NC(=O)[C@@H](N)CCCNC(=N)N)C(=O)N[C@@H](Cc1ccccc1)C(=O)N[C@@H](CC(=O)O)C(=O)N[C@@H](Cc1c[nH]cn1)C(=O)O [Q930R/pS935]
Human 14-3-3γ
  Kd: 11.1 ± 10.7 nM

## CC[C@H](C)[C@H](NC(=O)[C@H](COP(=O)(O)O)NC(=O)[C@H](CC(N)=O)NC(=O)[C@H](CO)NC(=O)[C@H](CCCCN)NC(=O)[C@@H](N)CCCCN)C(=O)N[C@@H](CO)C(=O)N[C@H](C(=O)NCC(=O)N[C@@H](CCC(=O)O)C(=O)N[C@@H](Cc1ccccc1)C(=O)N[C@@H](Cc1ccc(O)cc1)C(=O)N[C@@H](CCCNC(=N)N)C(=O)N[C@@H](CC(=O)O)C(=O)N[C@@H](C)C(=O)N[C@H](C(=O)N[C@@H](CC(C)C)C(=O)N[C@@H](CCC(N)=O)C(=O)N[C@@H](CCCNC(=N)N)C(=O)N[C@@H](CS)C(=O)N[C@@H](CO)C(=O)N1CCC[C@H]1C(=O)N[C@@H](CC(N)=O)C(=O)N[C@@H](CC(C)C)C(=O)N[C@@H](CCC(N)=O)C(=O)N[C@@H](CCCNC(=N)N)C(=O)N[C@@H](Cc1c[nH]cn1)C(=O)N[C@@H](CO)C(=O)N[C@@H](CC(N)=O)C(=O)N[C@@H](COP(=O)(O)O)C(=O)N[C@@H](CC(C)C)C(=O)NCC(=O)N1CCC[C@H]1C(=O)N[C@H](C(=O)N[C@@H](Cc1ccccc1)C(=O)O)[C@@H](C)CC)C(C)C)C(C)C [pS910/pS935]
Human 14-3-3γ
  Kd: 3.2 ± 0.5 nM

## KKSN SISVGEFYRDAVLQRCSPNLQRHSNSLGPIF ({fluorescein″}-KKSNSISVGEFYRDAVLQRCSPNLQRHSNSLGPIF) [S910/S935, fluorescein-labeled non-phosphorylated LRRK2-derived 35-mer encompassing S910 and S935]
Human 14-3-3γ
  Binding to 14-3-3γ, in words: did not bind

## KKSNSISVGEFYRDAVLQRCSPNLQRHSNpSLGPIF [S910/pS935, fluorescein-labeled LRRK2-derived 35-mer singly phosphorylated at S935]
Human 14-3-3γ
  Binding to 14-3-3γ, in words: only weak interactions
[1]
  Binding to the human 14-3-3 isoforms, in words: no isoform specificity could be distinguished

## KKSNpSISVGEFYRDAVLQRCSPNLQRHSNSLGPIF [pS910/S935, fluorescein-labeled LRRK2-derived 35-mer singly phosphorylated at S910]
Human 14-3-3γ
  Binding to 14-3-3γ, in words: only weak interactions
[1]
  Binding to the human 14-3-3 isoforms, in words: no isoform specificity could be distinguished

## LFNIKACASSSPVILVGT [R1441C, fluorescein-labeled non-phosphorylated LRRK2 Roc domain peptide with mutation R1441C]
Human 14-3-3γ
  Binding to 14-3-3γ, in words: did not bind; also recorded: no binding
[1]
  Binding to the human 14-3-3 isoforms, in words: did not bind any of the 14-3-3 isoforms

## LFNIKACASpSSPVILVGT [R1441C/pS1444, fluorescein-labeled LRRK2 Roc domain peptide with R1441C and pS1444]
Human 14-3-3γ
  Binding to 14-3-3γ, in words: micromolar affinities; also recorded: strongly decreased the nanomolar affinity of pS1444 alone
[1]
  Binding to the human 14-3-3 isoforms, in words: affinities in the micromolar range
[1]; FP, R1441C/pS1444 compared with pS1444
  Factor by which the mutation R1441C decreases the affinity to all 14-3-3 isoforms: ≥ 30

## LFNIKARASSSPVILVGT [S1443/S1444, fluorescein-labeled non-phosphorylated LRRK2 Roc domain peptide covering S1443 and S1444]
[1]
  Binding to the human 14-3-3 isoforms, in words: no detectable binding

## LFNIKARApSSSPVILVGT [pS1443, fluorescein-labeled LRRK2 Roc domain phosphopeptide, pS1443]
Human 14-3-3γ
  Binding to 14-3-3γ, in words: did not allow for binding
[1]
  Binding to the human 14-3-3 isoforms, in words: no detectable binding; also recorded: not demonstrated for any isoform

## RCSPNLQRHpSNSLGPIFDH [pS933, fluorescein-labeled LRRK2-derived phosphopeptide covering pS933]
Human 14-3-3γ
  Binding to 14-3-3γ, in words: neither the Q930R mutation nor the additional phosphorylation in pS933 could induce binding
[1]
  Binding to the human 14-3-3 isoforms, in words: no 14-3-3 binding was detectable

## RCSPNLRRHSNSLGPIFDH [Q930R, fluorescein-labeled non-phosphorylated LRRK2-derived peptide with mutation Q930R]
Human 14-3-3γ
  Binding to 14-3-3γ, in words: neither the Q930R mutation nor the additional phosphorylation in pS933 could induce binding

## RCSPNLRRHpSNSLGPIFDH [Q930R/pS933, fluorescein-labeled LRRK2-derived peptide with mutation Q930R and pS933]
[1]
  Binding to the human 14-3-3 isoforms, in words: no 14-3-3 binding was detectable

## SPNLQRHSNpSLGPIF [pS935, fluorescein-labeled LRRK2-derived phosphopeptide covering pS935]
Human 14-3-3γ
  Binding to 14-3-3γ, in words: did not bind; also recorded: no binding was detected
[1]
  Binding to the human 14-3-3 isoforms, in words: no binding could be detected; also recorded: could not detect binding; also recorded: non-binding

B1: human 14-3-3 isoform ε (recombinant, MBP tag removed) (natural protein, UniProt P62258 1-255, looked up)
chain: MDDREDLVYQAKLAEQAERYDEMVESMKKVAGMDVELTVEERNLLSVAYKNVIGARRASWRIISSIEQKEENKGGEDKLKMIREYRQMVETELKLICCDILDVLDKHLIPAANTGESKVFYYKMKGDYHRYLAEFATGNDRKEAAENSLVAYKAASDIAMTELPPTHPIRLGLALNFSVFYYEILNSPDRACRLAKAAFDDAIAELDTLSEESYKDSTLIMQLLRDNLTLWTSDMQGDGEEQNKEALQDVEDENQ
notes: 14-3-3 epsilon, human; Expressed from pMAL2CX plasmids; also called 14-3-3ε; source: E. coli BL21DE3, purified (maltose-agarose, Factor Xa, anion exchange)
pS1444
  Kd: > 1000 nM
R1441C/pS1444
  fold decrease in affinity against pS1444: ≥ 30 fold

B2: human 14-3-3 isoform β (recombinant, MBP tag removed) (natural protein, UniProt P31946 1-246, looked up)
chain: MTMDKSELVQKAKLAEQAERYDDMAAAMKAVTEQGHELSNEERNLLSVAYKNVVGARRSSWRVISSIEQKTERNEKKQQMGKEYREKIEAELQDICNDVLELLDKYLIPNATQPESKVFYLKMKGDYFRYLSEVASGDNKQTTVSNSQQAYQEAFEISKKEMQPTHPIRLGLALNFSVFYYEILNSPEKACSLAKTAFDEAIAELDTLNEESYKDSTLIMQLLRDNLTLWTSENQGDEGDAGEGEN
notes: 14-3-3 beta, human; Expressed from pMAL2CX plasmids; also called 14-3-3β; source: E. coli BL21DE3, purified (maltose-agarose, Factor Xa, anion exchange)
pS1444
  Kd: 183 nM
R1441C/pS1444
  fold decrease in affinity against pS1444: ≥ 30 fold

B3: human 14-3-3 isoform ζ (recombinant, MBP tag removed) (natural protein, UniProt P63104 1-245, looked up)
chain: MDKNELVQKAKLAEQAERYDDMAACMKSVTEQGAELSNEERNLLSVAYKNVVGARRSSWRVVSSIEQKTEGAEKKQQMAREYREKIETELRDICNDVLSLLEKFLIPNASQAESKVFYLKMKGDYYRYLAEVAAGDDKKGIVDQSQQAYQEAFEISKKEMQPTHPIRLGLALNFSVFYYEILNSPEKACSLAKTAFDEAIAELDTLSEESYKDSTLIMQLLRDNLTLWTSDTQGDEAEAGEGGEN
notes: 14-3-3 zeta, human; Expressed from pMAL2CX plasmids; also called 14-3-3ζ; source: E. coli BL21DE3, purified (maltose-agarose, Factor Xa, anion exchange)
pS1444
  Kd: 476 nM
R1441C/pS1444
  fold decrease in affinity against pS1444: ≥ 30 fold
